Reference: patent US20160168185A1 (BAYLOR COLLEGE OF MEDICINE, priority 2013, published 2016)
pIC50: −log10 of the molar value. Like-named read-outs stand apart in the source and are kept apart here.

What was measured:
[1] = Human plasma stability assay; format: in vitro ADME
Procedure: For human plasma stability assay, to human plasma (500 μL) was added a test compound to a final concentration of 5 μM and incubated at 37° C. at approximately 60 rpm on an orbital shaker. Aliquots of 50 μL were taken from the reaction solution at 0, 15, 30, 45 and 60 minutes. The reaction was stopped by the addition of 6 volumes of cold acetonitrile. Samples were centrifuged at 20,000 g for 15 minutes to precipitate protein. An aliquot of 150 μL of the supernatant was used to determine the remaining amount of the test compound, using the same LC/MS/MS method described above. All experiments were performed in duplicate.

[2] = tested on: histone methyltransferases CARM1, PRMT1 and SUV39H1
[3] = tested on: H3K79 methylation in MV4-11 cells; experiment: cells; details: Homo sapiens, MV4-11, 96 h, read-out: IC50 of H3K79 methylation inhibition
[4] = tested on: panel of other HMTs; experiment: Activity against a panel of other HMTs
[5] = continuous infusion, subcutaneously implanted osmotic pump; cited from earlier work
[6] = tested on: MV4-11 MLL leukemia mouse model; details: cited from earlier work
[7] = Human liver microsome stability assay; format: in vitro ADME
[8] = tested on: claudin-1, -3, E-cadherin, Snail1, Zeb1, Zeb2 expression in MDA-MB231; experiment: qPCR of cell-cell adhesion and EMT gene expression in MDA-MB231; format: cell-based
Excerpt: Fourth, qPCR was used to find if treatment with SYC-522 affects gene expression of cell-cell adhesion and EMT genes. […].

[9] = tested on: MDA-MB231; experiment: Apoptosis of MDA-MB231, FACS with Annexin-V assay; details: 10-day treatment

Structure (SMILES): CC(C)N(CCCNC(=O)Nc1ccc(C(C)(C)C)cc1)CC1=C[C@@H](n2cnc3c(N)ncnc32)[C@H](O)[C@@H]1O [compound of Formula VII, 1-(3-((((3R,4S,5R)-3-adenosyl-4,5-dihydroxycyclopent-1-en-1-yl)methyl)-(isopropyl)amino)propyl)-3-(4-(tert-butyl)phenyl)urea]
- stability in human plasma in words [1]: stable
- activity against CARM1, PRMT1 and SUV39H1 (other HMTs) in words [2]: no activity
- pIC50 [3]: ~6.70

Structure (SMILES): CNc1ncnc2c1ncn2[C@@H]1O[C@H](CSCC[C@H](N)C(=O)O)[C@@H](O)[C@H]1O [compound 24, N6-methyl-SAH]
- activity against a panel of other HMTs in words [4]: inactive

Structure (SMILES): Nc1ncnc2c1ncn2[C@@H]1O[C@H](CSCC[C@H](N)C(=O)O)[C@@H](O)[C@H]1O [SAH, S-(5′-adenosyl)-L-homocysteine, reference compound]
- activity against CARM1, PRMT1 and SUV39H1 (other HMTs) in words [2]: broad activity

Structure (SMILES): CC(C)N(CCCNC(=O)Nc1ccc(C(C)(C)C)cc1)C[C@H]1O[C@@H](n2ccc3c(N)ncnc32)[C@H](O)[C@@H]1O [EPZ004777]
- stable plasma drug concentration [5]: ~0.5 µM
- in vivo efficacy in MLL leukemia mouse model in words [6]: weak in vivo activity
- in vivo efficacy in MLL leukemia mouse model in words ([6]; listed as Compound 1): relatively weak in vivo efficacy

Structure (SMILES): CC(C)N(CCCNC(=O)Nc1ccc(C(C)(C)C)cc1)C[C@H]1O[C@@H](n2cnc3c(N)ncnc32)[C@H](O)[C@@H]1O [SYC-522]
- metabolic stability in human liver microsomes in words [7]: quickly degraded
- Zeb1 and Zeb2 expression [8]: unchanged or slightly increased
- expression of Snail1 [8]: large decreased expression
- increase of the expression of claudin-1, -3 and E-cadherin ([8]; dose-dependent): ≤ 3.9 fold
- apoptosis of MDA-MB231 at 2 μM ([9]; 2 μM): negligible apoptosis
- apoptosis of MDA-MB231 at 10 μM ([9]; 10 μM): 18.4%
